The target in data set [1] is T1, Nuclear receptor subfamily 1 group I member 2 (Homo sapiens, UniProt O75469).
T1 sequence (O75469 whole entry): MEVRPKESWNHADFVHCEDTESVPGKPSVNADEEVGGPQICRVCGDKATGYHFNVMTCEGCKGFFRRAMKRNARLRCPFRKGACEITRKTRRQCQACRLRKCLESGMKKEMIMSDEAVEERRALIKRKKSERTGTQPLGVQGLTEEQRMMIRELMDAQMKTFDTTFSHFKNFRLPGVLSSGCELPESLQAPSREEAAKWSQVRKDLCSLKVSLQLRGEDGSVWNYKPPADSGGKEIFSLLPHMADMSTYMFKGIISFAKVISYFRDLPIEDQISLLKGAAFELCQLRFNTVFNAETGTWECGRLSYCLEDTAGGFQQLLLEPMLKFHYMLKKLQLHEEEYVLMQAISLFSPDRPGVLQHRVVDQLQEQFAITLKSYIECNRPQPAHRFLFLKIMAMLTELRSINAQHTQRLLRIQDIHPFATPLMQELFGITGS
Kind of data set: Minimum effective concentration required to activate pregnane X receptor (PXR).

Another data set addresses Estrogen receptor beta (Homo sapiens, UniProt Q92731). Nature of the data set: Minimum effective concentration required to activate Estrogen receptor 2 (ER beta); Not detected.
A further data set concerns U2OS (Homo sapiens). Nature of the data set: Concentration required for inhibition of U2OS cell growth.
For the next data set, the target named is T2, Estrogen receptor (Homo sapiens, UniProt P03372).
T2 sequence (P03372 whole entry): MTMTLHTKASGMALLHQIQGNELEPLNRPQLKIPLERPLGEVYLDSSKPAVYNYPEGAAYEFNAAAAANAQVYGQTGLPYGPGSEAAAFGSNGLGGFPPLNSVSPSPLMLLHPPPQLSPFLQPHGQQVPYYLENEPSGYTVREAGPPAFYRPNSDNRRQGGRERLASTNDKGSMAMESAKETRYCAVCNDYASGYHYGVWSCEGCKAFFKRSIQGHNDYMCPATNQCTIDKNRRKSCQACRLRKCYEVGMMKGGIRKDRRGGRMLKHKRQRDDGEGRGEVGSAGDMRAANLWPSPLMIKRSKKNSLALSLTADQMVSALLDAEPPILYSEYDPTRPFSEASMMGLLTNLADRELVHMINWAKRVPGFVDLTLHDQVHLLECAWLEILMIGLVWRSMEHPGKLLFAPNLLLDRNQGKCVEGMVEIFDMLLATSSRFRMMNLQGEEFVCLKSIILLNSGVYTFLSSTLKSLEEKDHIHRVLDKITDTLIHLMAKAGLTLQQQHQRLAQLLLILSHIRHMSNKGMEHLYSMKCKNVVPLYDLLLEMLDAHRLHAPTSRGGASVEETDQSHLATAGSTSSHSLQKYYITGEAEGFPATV
Nature of the data set: Minimum effective concentration required to activate Estrogen receptor 1 (ER alpha); Not detected.

Data set [2] addresses T3, Peroxisome proliferator-activated receptor gamma (Homo sapiens) (UniProt P37231).
T3 sequence (whole entry): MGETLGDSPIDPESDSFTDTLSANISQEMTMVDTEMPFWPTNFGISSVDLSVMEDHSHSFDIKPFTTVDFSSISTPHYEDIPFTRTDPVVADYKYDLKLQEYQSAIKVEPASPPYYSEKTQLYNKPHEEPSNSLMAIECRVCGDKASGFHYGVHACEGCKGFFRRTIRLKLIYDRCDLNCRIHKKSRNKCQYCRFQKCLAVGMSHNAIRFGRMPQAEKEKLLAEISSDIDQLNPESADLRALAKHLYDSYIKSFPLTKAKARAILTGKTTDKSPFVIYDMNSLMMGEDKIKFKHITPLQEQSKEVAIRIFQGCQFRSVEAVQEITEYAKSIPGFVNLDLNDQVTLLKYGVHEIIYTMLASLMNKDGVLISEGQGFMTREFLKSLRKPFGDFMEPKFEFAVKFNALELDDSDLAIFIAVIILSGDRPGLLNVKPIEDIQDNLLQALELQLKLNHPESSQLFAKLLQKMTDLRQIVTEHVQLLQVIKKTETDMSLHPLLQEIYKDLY
Kind of data set: Minimum effective concentration required to activate Peroxisome proliferator activated receptor gamma (PPAR gamma).

Estrogen receptor beta, sequence (Q92731 whole entry): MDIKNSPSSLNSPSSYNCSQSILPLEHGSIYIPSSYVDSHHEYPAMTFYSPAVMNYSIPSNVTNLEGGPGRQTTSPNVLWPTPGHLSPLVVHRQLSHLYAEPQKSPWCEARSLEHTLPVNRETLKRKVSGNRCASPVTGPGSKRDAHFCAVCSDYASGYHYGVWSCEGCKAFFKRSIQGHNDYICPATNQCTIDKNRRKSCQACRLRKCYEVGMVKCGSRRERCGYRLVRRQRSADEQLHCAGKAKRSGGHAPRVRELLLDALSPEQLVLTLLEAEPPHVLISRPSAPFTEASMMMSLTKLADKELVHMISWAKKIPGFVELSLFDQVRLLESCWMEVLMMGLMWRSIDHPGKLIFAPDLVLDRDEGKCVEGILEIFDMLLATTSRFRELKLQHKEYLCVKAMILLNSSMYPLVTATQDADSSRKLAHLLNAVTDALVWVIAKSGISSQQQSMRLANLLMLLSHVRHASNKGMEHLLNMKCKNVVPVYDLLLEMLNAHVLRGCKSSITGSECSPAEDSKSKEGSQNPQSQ

The term IC50 denotes the point on the concentration scale where inhibition reaches its midpoint. Turning to `COc1c(Cl)c(C)c(C=O)c(O)c1C/C=C(C)/C=C/[C@@]1(C)[C@H](C)CCC(=O)[C@@H]1C`, the MEC was 1 µM in data set [1], “Not Active” at Estrogen receptor beta and “Not Active” on Estrogen receptor. Besides, the half-inhibitory concentration (IC50) in the data set on U2OS (Homo sapiens) was 1.8 µM.

Regarding `COc1c(Cl)c(C)c(C(=O)O)c(OC)c1C/C=C(C)/C=C/[C@@]1(C)[C@H](C)CCC(=O)[C@@H]1C`, the MEC is 1 µM in data set [1], “Not Active” on Estrogen receptor beta and “Not Active” on Estrogen receptor. For the same compound, in the data set on U2OS (Homo sapiens), the concentration for half-maximal inhibition (IC50) was 56 µM.

As to `C/C(=C\Cc1c(O)c(C=O)c(C)c(Cl)c1OC(=O)c1ccncc1)CC/C=C(\C)[C@@H]1CC(=O)C(C)(C)O1`, the MEC in data set [1] was 10 µM; on Estrogen receptor beta, “Not Active”; at Estrogen receptor, “Not Active”. Half-maximal inhibition in the data set with U2OS (Homo sapiens) (IC50) required 10 µM.

Turning to `COc1c(C=O)c(C)c(Cl)c(O)c1C/C=C(C)/C=C/[C@@]1(C)[C@H](C)CCC(=O)[C@@H]1C`, the MEC in data set [2] was 10 µM; in data set [1], 1 µM; at Estrogen receptor beta, “Not Active”; on Estrogen receptor it was “Not Active”. The compound further showed an IC50 with U2OS (Homo sapiens) of 5.6 µM.

As to `CCOC(=O)COc1c(Cl)c(C)c(C=O)c(OC)c1C/C=C(C)/C=C/[C@@]1(C)[C@H](C)CCC(=O)[C@@H]1C`, the MEC in data set [2] is 3 µM; in data set [1], 1 µM; on Estrogen receptor beta, “Not Active”; at Estrogen receptor, “Not Active”. The compound further yielded an IC50 in the data set on U2OS (Homo sapiens) of 3.2 µM.

For the compound `Cc1c(Cl)c(O)c2c(c1C=O)OC(C)(/C=C/[C@]1(C)C(C)C(=O)CC[C@H]1C)CC2` (stereo partly specified), the MEC in data set [1] is 3 µM; on Estrogen receptor beta it was “Not Active”; at Estrogen receptor, “Not Active”. The compound also had an IC50 in the data set with U2OS (Homo sapiens) of 56 µM.

On to `COc1c(C=O)c(C)c(Cl)c(OC(=O)c2cccnc2)c1C/C=C(C)/C=C/[C@@]1(C)[C@H](C)CCC(=O)[C@@H]1C`, for which the MEC is 100 µM in data set [2], 10 µM in data set [1], “Not Active” on Estrogen receptor beta and “Not Active” at Estrogen receptor. Further, in the data set with U2OS (Homo sapiens), the IC50 was found to be 37 µM.

Consider `CC(/C=C/[C@@]1(C)[C@H](C)CCC(=O)[C@@H]1C)=C\Cc1c(O)c(C=O)c(C)c(Cl)c1OCC(=O)O`, for which the MEC in data set [2] was 30 µM; in data set [1] it was 30 µM; on Estrogen receptor beta it was “Not Active”; on Estrogen receptor, “Not Active”. In the data set with U2OS (Homo sapiens), this compound displayed an IC50 of 56 µM.

As to `CC(/C=C/[C@@]1(C)[C@H](C)CCC(=O)[C@@H]1C)=C\Cc1c(O)c(C=O)c(C)c(Cl)c1OC(=O)c1ccncc1`, the MEC is 10 µM in data set [2], 1 µM in data set [1], “Not Active” at Estrogen receptor beta and “Not Active” at Estrogen receptor. In the data set on U2OS (Homo sapiens), this compound returned an IC50 of 10 µM.

As to `COc1c(Cl)c(C)c(C=O)c(OC)c1CC1OC1(C)/C=C/[C@@]1(C)[C@H](C)CCC(=O)[C@@H]1C` (stereo partly specified), the results for the MEC (in data set [1]; at Estrogen receptor beta; at Estrogen receptor) were 1 µM, “Not Active” and “Not Active”, respectively. The compound further yielded a half-inhibitory concentration (IC50) in the data set with U2OS (Homo sapiens) of 10 µM.

Take `C/C(=C\Cc1c(O)c(C=O)c(C)c(Cl)c1OCC(=O)O)CC/C=C(\C)[C@@H]1CC(=O)C(C)(C)O1`: the MEC is 30 µM in data set [1], “Not Active” on Estrogen receptor beta and “Not Active” at Estrogen receptor. Moreover, in the data set with U2OS (Homo sapiens), half-maximal inhibition (IC50) was put at 32 µM.

With `C/C(=C\Cc1c(O)c(Cl)c(C)c(C=O)c1O)CC/C=C(\C)[C@@H]1CC(=O)C(C)(C)O1` [ASCOFURANONE], the values for the MEC (in data set [1]; at Estrogen receptor beta; on Estrogen receptor) were 3 µM, “Not Active” and “Not Active”, respectively. This compound came in with an IC50 in the data set with U2OS (Homo sapiens) of 3.2 µM.

For `Cc1c(Cl)c2c(c(O)c1C=O)CC(CC(C)(O)/C=C/[C@@]1(C)[C@H](C)CCC3(OCCO3)[C@@H]1C)O2` (stereo partly specified), the figures for the MEC (in data set [1]; on Estrogen receptor beta; on Estrogen receptor) were 3 µM, “Not Active” and “Not Active”, respectively. In the data set with U2OS (Homo sapiens), this compound registered an IC50 of 18 µM.

Regarding `COc1c(C=O)c(C)c(Cl)c(OC(C)=O)c1C/C=C(\C)CC/C=C(\C)[C@@H]1CC(=O)C(C)(C)O1`, the MEC in data set [1] was 1 µM; at Estrogen receptor beta it was “Not Active”; on Estrogen receptor, “Not Active”. For the same compound, inhibition in the data set with U2OS (Homo sapiens) was half-maximal at 10 µM (IC50).

As to `Cc1c(C=O)cc2c(c1Cl)OC(C)(/C=C/[C@]1(C)C(C)C(=O)CC[C@H]1C)CC2` (stereo partly specified), the MEC in data set [1] was 1 µM; at Estrogen receptor beta it was “Not Active”; on Estrogen receptor, “Not Active”. This compound also showed a concentration for half-maximal inhibition (IC50) with U2OS (Homo sapiens) of 18 µM.

`COc1c(C=O)c(C)c(Cl)c(O)c1C/C=C(\C)CC/C=C(\C)[C@@H]1CC(=O)C(C)(C)O1`: the MEC in data set [2] was 30 µM; in data set [1] it was 1 µM; at Estrogen receptor beta it was “Not Active”; on Estrogen receptor, “Not Active”. The compound also gave an IC50 with U2OS (Homo sapiens) of 18 µM.

As to `CC(/C=C/[C@@]1(C)[C@H](C)CCC(=O)[C@@H]1C)=C\Cc1c(O)c(C=O)c(C)c(Cl)c1OC(=O)CCCC(=O)O`, the MEC in data set [2] is 10 µM; in data set [1], 1 µM; on Estrogen receptor beta, “Not Active”; on Estrogen receptor it was “Not Active”. In addition, the IC50 in the data set on U2OS (Homo sapiens) came out at 0.6 µM.

With `C/C(=C\Cc1c(O)c(C=O)c(C)c(Cl)c1OC(=O)CCCC(=O)O)CC/C=C(\C)[C@@H]1CC(=O)C(C)(C)O1`, the MEC was 10 µM in data set [1], “Not Active” at Estrogen receptor beta and “Not Active” at Estrogen receptor. This compound returned an IC50 in the data set on U2OS (Homo sapiens) of 3.2 µM.

Consider `COc1c(Cl)c(C)c(C=O)c(O)c1C/C=C(\C)CC/C=C(\C)[C@@H]1CC(=O)C(C)(C)O1`, for which the MEC in data set [1] was 1 µM; on Estrogen receptor beta it was “Not Active”; on Estrogen receptor, “Not Active”. In the data set with U2OS (Homo sapiens), this compound registered a 50% inhibitory concentration (IC50) of 5.6 µM.

Regarding `C/C(=C\Cc1c(O)c(C=O)c(C)c(Cl)c1OC(=O)c1cccnc1)CC/C=C(\C)[C@@H]1CC(=O)C(C)(C)O1`, the values for the MEC (in data set [1]; on Estrogen receptor beta; at Estrogen receptor) were 10 µM, “Not Active” and “Not Active”, respectively. The compound also returned an IC50 in the data set with U2OS (Homo sapiens) of 10 µM.

In the case of `COc1c(C=O)c(C)c(Cl)c(OCC(=O)O)c1C/C=C(C)/C=C/[C@@]1(C)[C@H](C)CCC(=O)[C@@H]1C`, the MEC in data set [2] was 3 µM; in data set [1] it was 3 µM; on Estrogen receptor beta, “Not Active”; at Estrogen receptor, “Not Active”. Moreover, the concentration for half-maximal inhibition (IC50) in the data set on U2OS (Homo sapiens) amounted to 56 µM.

As for `CC(=O)Oc1c(Cl)c(C)c(C=O)c(O)c1C/C=C(\C)CC/C=C(\C)[C@@H]1CC(=O)C(C)(C)O1`, the MEC in data set [1] was 1 µM; at Estrogen receptor beta, “Not Active”; at Estrogen receptor it was “Not Active”. Further, in the data set on U2OS (Homo sapiens), the IC50 was found to be 10 µM.

As for `CC(/C=C/[C@@]1(C)[C@H](C)CCC(=O)[C@@H]1C)=C\Cc1c(O)c(C=O)c(C)c(Cl)c1OC(=O)c1cccnc1`, the MEC in data set [2] was 10 µM; in data set [1], 3 µM; at Estrogen receptor beta, “Not Active”; at Estrogen receptor it was “Not Active”. This compound displayed a half-maximal inhibitory concentration (IC50) in the data set with U2OS (Homo sapiens) of 4.7 µM.

The record behind these values is ChEMBL document CHEMBL1145088, “Ascochlorin derivatives as ligands for nuclear hormone receptors” (J Med Chem, 2003).
